Measured values as given in ChEMBL document CHEMBL4152326 (2018).

System: Pseudomonas aeruginosa
Assay: Antimicrobial activity against Pseudomonas aeruginosa SR24 in presence of human apo-transferrin by broth microdilution method
Format: functional

Row | Structure (SMILES) | MIC [µg/mL]
1 | CC(C)(O/N=C(\C(=O)N[C@@H]1C(=O)N2C(C(=O)[O-])=C(C[N+]3(CCNC(=O)c4ccc(O)c(O)c4Cl)CCCC3)CS[C@H]12)c1nsc(N)n1)C(=O)O | 0.25
2 | C[C@@H](C[N+]1(CC2=C(C(=O)[O-])N3C(=O)[C@@H](NC(=O)/C(=N\OC(C)(C)C(=O)O)c4csc(N)n4)[C@H]3SC2)CCCC1)NC(=O)c1ccc(O)c(O)c1Cl | 0.25
3 | COc1c(C(=O)NCC[N+]2(CC3=C(C(=O)[O-])N4C(=O)[C@@H](NC(=O)/C(=N\OC(C)(C)C(=O)O)c5csc(N)n5)[C@H]4SC3)CCCC2)ccc(O)c1O | 0.125
4 | CC(C)(O/N=C(\C(=O)N[C@@H]1C(=O)N2C(C(=O)[O-])=C(C[N+]3(CCNC(=O)Nc4ccc(O)c(O)c4Cl)CCCC3)CS[C@H]12)c1csc(N)n1)C(=O)O | 1

System: Pseudomonas aeruginosa
Assay: Antimicrobial activity against AmpC overproducing Pseudomonas aeruginosa SR24-12 in presence of human apo-transferrin by broth microdilution method
Format: functional

Row | Structure (SMILES) | MIC [µg/mL]
5 | CC(C)(O/N=C(\C(=O)N[C@@H]1C(=O)N2C(C(=O)[O-])=C(C[N+]3(CCNC(=O)c4ccc(O)c(O)c4Cl)CCCC3)CS[C@H]12)c1nsc(N)n1)C(=O)O | 0.25
6 | C[C@@H](C[N+]1(CC2=C(C(=O)[O-])N3C(=O)[C@@H](NC(=O)/C(=N\OC(C)(C)C(=O)O)c4csc(N)n4)[C@H]3SC2)CCCC1)NC(=O)c1ccc(O)c(O)c1Cl | 0.25
7 | COc1c(C(=O)NCC[N+]2(CC3=C(C(=O)[O-])N4C(=O)[C@@H](NC(=O)/C(=N\OC(C)(C)C(=O)O)c5csc(N)n5)[C@H]4SC3)CCCC2)ccc(O)c1O | 0.125
8 | CC(C)(O/N=C(\C(=O)N[C@@H]1C(=O)N2C(C(=O)[O-])=C(C[N+]3(CCNC(=O)Nc4ccc(O)c(O)c4Cl)CCCC3)CS[C@H]12)c1csc(N)n1)C(=O)O | 1

System: Pseudomonas aeruginosa
Assay: Antimicrobial activity against IMP-1 producing Pseudomonas aeruginosa SR27001 in presence of human apo-transferrin by broth microdilution method
Format: functional

Row | Structure (SMILES) | MIC [µg/mL]
9 | CO/N=C(\C(=O)N[C@@H]1C(=O)N2C(C(=O)[O-])=C(C[N+]3(CCNC(=O)c4ccc(O)c(O)c4Cl)CCCC3)CS[C@H]12)c1csc(N)n1 | 4
10 | CC(C)(O/N=C(\C(=O)N[C@@H]1C(=O)N2C(C(=O)[O-])=C(C[n+]3cccc4c3CCCN4C(=O)c3ccc(O)c(O)c3Cl)CS[C@H]12)c1csc(N)n1)C(=O)O | 4
11 | CC(C)(O/N=C(\C(=O)N[C@@H]1C(=O)N2C(C(=O)[O-])=C(C[n+]3ccc(-c4ccc(O)c(O)c4Cl)cc3)CS[C@H]12)c1csc(N)n1)C(=O)O (stereo in doubt) | > 64
12 | CC(C)(O/N=C(\C(=O)N[C@@H]1C(=O)N2C(C(=O)[O-])=C(C[N+]3(CCNC(=O)c4ccc(O)c(O)c4Cl)CCCC3)CS[C@H]12)c1nsc(N)n1)C(=O)O | 1
13 | C[C@@H](C[N+]1(CC2=C(C(=O)[O-])N3C(=O)[C@@H](NC(=O)/C(=N\OC(C)(C)C(=O)O)c4csc(N)n4)[C@H]3SC2)CCCC1)NC(=O)c1ccc(O)c(O)c1Cl | 1
14 | COc1c(C(=O)NCC[N+]2(CC3=C(C(=O)[O-])N4C(=O)[C@@H](NC(=O)/C(=N\OC(C)(C)C(=O)O)c5csc(N)n5)[C@H]4SC3)CCCC2)ccc(O)c1O | 4
15 | CC(C)(O/N=C(\C(=O)N[C@@H]1C(=O)N2C(C(=O)[O-])=C(C[N+]3(CCNC(=O)Nc4ccc(O)c(O)c4Cl)CCCC3)CS[C@H]12)c1csc(N)n1)C(=O)O | 4

System: Pseudomonas aeruginosa
Assay: Antimicrobial activity against VIM-2 producing Pseudomonas aeruginosa SBRKM-28 in presence of human apo-transferrin by broth microdilution method
Format: functional

Row | Structure (SMILES) | MIC [µg/mL]
16 | CO/N=C(\C(=O)N[C@@H]1C(=O)N2C(C(=O)[O-])=C(C[N+]3(CCNC(=O)c4ccc(O)c(O)c4Cl)CCCC3)CS[C@H]12)c1csc(N)n1 | 0.5
17 | CC(C)(O/N=C(\C(=O)N[C@@H]1C(=O)N2C(C(=O)[O-])=C(C[n+]3cccc4c3CCCN4C(=O)c3ccc(O)c(O)c3Cl)CS[C@H]12)c1csc(N)n1)C(=O)O | 0.125
18 | CC(C)(O/N=C(\C(=O)N[C@@H]1C(=O)N2C(C(=O)[O-])=C(C[n+]3ccc(-c4ccc(O)c(O)c4Cl)cc3)CS[C@H]12)c1csc(N)n1)C(=O)O (stereo in doubt) | 0.25
19 | CC(C)(O/N=C(\C(=O)N[C@@H]1C(=O)N2C(C(=O)[O-])=C(C[N+]3(CCNC(=O)c4ccc(O)c(O)c4Cl)CCCC3)CS[C@H]12)c1nsc(N)n1)C(=O)O | 0.25
20 | C[C@@H](C[N+]1(CC2=C(C(=O)[O-])N3C(=O)[C@@H](NC(=O)/C(=N\OC(C)(C)C(=O)O)c4csc(N)n4)[C@H]3SC2)CCCC1)NC(=O)c1ccc(O)c(O)c1Cl | 0.125
21 | CC(C)(O/N=C(\C(=O)N[C@@H]1C(=O)N2C(C(=O)[O-])=C(C[N+]3(CCNC(=O)Nc4ccc(O)c(O)c4Cl)CCCC3)CS[C@H]12)c1csc(N)n1)C(=O)O | 0.5

System: Pseudomonas aeruginosa
Assay: Antimicrobial activity against IMP-1 producing Pseudomonas aeruginosa SR27060 in presence of human apo-transferrin by broth microdilution method
Format: functional

Row | Structure (SMILES) | MIC [µg/mL]
22 | CO/N=C(\C(=O)N[C@@H]1C(=O)N2C(C(=O)[O-])=C(C[N+]3(CCNC(=O)c4ccc(O)c(O)c4Cl)CCCC3)CS[C@H]12)c1csc(N)n1 | 32
23 | CC(C)(O/N=C(\C(=O)N[C@@H]1C(=O)N2C(C(=O)[O-])=C(C[n+]3cccc4c3CCCN4C(=O)c3ccc(O)c(O)c3Cl)CS[C@H]12)c1csc(N)n1)C(=O)O | 4
24 | CC(C)(O/N=C(\C(=O)N[C@@H]1C(=O)N2C(C(=O)[O-])=C(C[n+]3ccc(-c4ccc(O)c(O)c4Cl)cc3)CS[C@H]12)c1csc(N)n1)C(=O)O (stereo in doubt) | 16
25 | CC(C)(O/N=C(\C(=O)N[C@@H]1C(=O)N2C(C(=O)[O-])=C(C[N+]3(CCNC(=O)c4ccc(O)c(O)c4Cl)CCCC3)CS[C@H]12)c1nsc(N)n1)C(=O)O | 1
26 | C[C@@H](C[N+]1(CC2=C(C(=O)[O-])N3C(=O)[C@@H](NC(=O)/C(=N\OC(C)(C)C(=O)O)c4csc(N)n4)[C@H]3SC2)CCCC1)NC(=O)c1ccc(O)c(O)c1Cl | 2
27 | COc1c(C(=O)NCC[N+]2(CC3=C(C(=O)[O-])N4C(=O)[C@@H](NC(=O)/C(=N\OC(C)(C)C(=O)O)c5csc(N)n5)[C@H]4SC3)CCCC2)ccc(O)c1O | 4
28 | CC(C)(O/N=C(\C(=O)N[C@@H]1C(=O)N2C(C(=O)[O-])=C(C[N+]3(CCNC(=O)Nc4ccc(O)c(O)c4Cl)CCCC3)CS[C@H]12)c1csc(N)n1)C(=O)O | 8

System: Pseudomonas aeruginosa
Assay: Antimicrobial activity against Pseudomonas aeruginosa 27060deltaR1 harboring deletion of R1 plasmid in presence of human apo-transferrin by broth microdilution method
Format: functional

Row | Structure (SMILES) | MIC [µg/mL]
29 | CC(C)(O/N=C(\C(=O)N[C@@H]1C(=O)N2C(C(=O)[O-])=C(C[N+]3(CCNC(=O)c4ccc(O)c(O)c4Cl)CCCC3)CS[C@H]12)c1nsc(N)n1)C(=O)O | 0.25
30 | C[C@@H](C[N+]1(CC2=C(C(=O)[O-])N3C(=O)[C@@H](NC(=O)/C(=N\OC(C)(C)C(=O)O)c4csc(N)n4)[C@H]3SC2)CCCC1)NC(=O)c1ccc(O)c(O)c1Cl | 0.25
31 | COc1c(C(=O)NCC[N+]2(CC3=C(C(=O)[O-])N4C(=O)[C@@H](NC(=O)/C(=N\OC(C)(C)C(=O)O)c5csc(N)n5)[C@H]4SC3)CCCC2)ccc(O)c1O | 2
32 | CC(C)(O/N=C(\C(=O)N[C@@H]1C(=O)N2C(C(=O)[O-])=C(C[N+]3(CCNC(=O)Nc4ccc(O)c(O)c4Cl)CCCC3)CS[C@H]12)c1csc(N)n1)C(=O)O | 2

System: Stenotrophomonas maltophilia
Assay: Antimicrobial activity against L-1 producing Stenotrophomonas maltophilia SR21970 in presence of human apo-transferrin by broth microdilution method
Format: functional

Row | Structure (SMILES) | MIC [µg/mL]
33 | CO/N=C(\C(=O)N[C@@H]1C(=O)N2C(C(=O)[O-])=C(C[N+]3(CCNC(=O)c4ccc(O)c(O)c4Cl)CCCC3)CS[C@H]12)c1csc(N)n1 | 2
34 | CC(C)(O/N=C(\C(=O)N[C@@H]1C(=O)N2C(C(=O)[O-])=C(C[n+]3cccc4c3CCCN4C(=O)c3ccc(O)c(O)c3Cl)CS[C@H]12)c1csc(N)n1)C(=O)O | 0.5
35 | CC(C)(O/N=C(\C(=O)N[C@@H]1C(=O)N2C(C(=O)[O-])=C(C[n+]3ccc(-c4ccc(O)c(O)c4Cl)cc3)CS[C@H]12)c1csc(N)n1)C(=O)O (stereo in doubt) | 1
36 | CC(C)(O/N=C(\C(=O)N[C@@H]1C(=O)N2C(C(=O)[O-])=C(C[N+]3(CCNC(=O)c4ccc(O)c(O)c4Cl)CCCC3)CS[C@H]12)c1nsc(N)n1)C(=O)O | 0.25
37 | C[C@@H](C[N+]1(CC2=C(C(=O)[O-])N3C(=O)[C@@H](NC(=O)/C(=N\OC(C)(C)C(=O)O)c4csc(N)n4)[C@H]3SC2)CCCC1)NC(=O)c1ccc(O)c(O)c1Cl | 0.25
38 | COc1c(C(=O)NCC[N+]2(CC3=C(C(=O)[O-])N4C(=O)[C@@H](NC(=O)/C(=N\OC(C)(C)C(=O)O)c5csc(N)n5)[C@H]4SC3)CCCC2)ccc(O)c1O | 2
39 | CC(C)(O/N=C(\C(=O)N[C@@H]1C(=O)N2C(C(=O)[O-])=C(C[N+]3(CCNC(=O)Nc4ccc(O)c(O)c4Cl)CCCC3)CS[C@H]12)c1csc(N)n1)C(=O)O | 4

System: Acinetobacter baumannii
Assay: Antimicrobial activity against OXA-23/OXA-58 producing Acinetobacter baumannii SR27323 in presence of human apo-transferrin by broth microdilution method
Format: functional

Row | Structure (SMILES) | MIC [µg/mL]
40 | COc1c(C(=O)NCC[N+]2(CC3=C(C(=O)[O-])N4C(=O)[C@@H](NC(=O)/C(=N\OC(C)(C)C(=O)O)c5csc(N)n5)[C@H]4SC3)CCCC2)ccc(O)c1O | 1

System: Klebsiella pneumoniae
Assay: Antimicrobial activity against KPC-2 producing Klebsiella pneumoniae ATCC BAA-1705 in presence of human apo-transferrin by broth microdilution method
Format: functional

Row | Structure (SMILES) | MIC [µg/mL]
41 | COc1c(C(=O)NCC[N+]2(CC3=C(C(=O)[O-])N4C(=O)[C@@H](NC(=O)/C(=N\OC(C)(C)C(=O)O)c5csc(N)n5)[C@H]4SC3)CCCC2)ccc(O)c1O | 0.25

System: Escherichia coli
Assay: Antimicrobial activity against SHV-4 producing Escherichia coli ATCC BAA-200 in presence of human apo-transferrin by broth microdilution method
Format: functional

Row | Structure (SMILES) | MIC [µg/mL]
42 | COc1c(C(=O)NCC[N+]2(CC3=C(C(=O)[O-])N4C(=O)[C@@H](NC(=O)/C(=N\OC(C)(C)C(=O)O)c5csc(N)n5)[C@H]4SC3)CCCC2)ccc(O)c1O | 8
